From article PMC11579541, “In vitro, in vivo, and in silico approaches for evaluating the preclinical DMPK profiles of ammoxetine, a novel chiral serotonin and norepinephrine reuptake inhibitor” (Frontiers in Pharmacology, 2024)
Read-outs that look alike come from different tables or passages of the source.

Assays:
[1] = PPB assay by ultrafiltration, rat plasma; assay type: in vitro ADME, rats
Description: The PPB of ammoxetine was determined using the ultrafiltration method. Triplicate samples of rat, dog, or human plasma were spiked with ammoxetine at three final concentrations (50, 150, and 450 ng/mL). The spiked plasma samples were then incubated in a 37°C air-bath shaker for 1 h until equilibrium was reached. After incubation, 400 μL of the plasma samples were transferred to pre-saturated ultrafiltration devices. These devices were subsequently centrifuged at 13,800×g and 20°C for 20 min to separate the unbound ammoxetine. 100 μL of the test samples were taken and mixed with 100 μL of the IS, L-phencynonate (50 ng/mL), and 300 μL of methanol. Following centrifugation at 13,800×g for 10 min, the supernatants were used to determine the total and free concentrations of ammoxetine in the plasma (C t , C f ) using an LC-MS-MS method. The PPB rate (%) of ammoxetine was calculated by dividing (C t −C f ) by C t .

PK study in rats = assay type: in vivo, SD rats; conditions: rat, plasma; for CL/F: read-out: CLz/F (converted); for MRT last: read-out: MRT(0-t); for MRT inf: read-out: MRT(0-∞); for Vd/F: read-out: Vz/F; for half-life: read-out: t1/2z (converted)
Description: For the PK studies in rats and dogs, a total of 18 SD rats and 15 male beagle dogs were randomly divided into three groups, with six rats or five dogs per group, respectively. Prior to the experiments, all animals underwent a 12-h fasting period, while having free access to water. The animals were administered single oral doses of ammoxetine in three different dose levels: 8 mg/kg, 20 mg/kg, and 50 mg/kg for rats, and 2 mg/kg, 5 mg/kg, and 12.5 mg/kg for dogs, representing low, medium, and high doses. Serial blood samples were collected from the rats at 0, 2, 5, 15, and 30 min, as well as 1, 2, 4, 6, 8, 12, and 24 h post-dosing. For the dogs, blood samples were collected at 0, 5, 15, 30, and 45 min, as well as 1, 2, 4, 6, 8, 12, and 24 h post-dosing. Approximately 0.3 mL of blood was collected from the rats, while 2 mL of blood was collected from the dogs. The blood samples were collected into heparinized tubes. Following centrifugation, plasma samples were obtained and stored at −30°C until further analysis.
To determine the concentration of ammoxetine, 100 μL of L-phencynonate (IS, 50 ng/mL) and 300 μL of methanol were added to 100 μL of plasma samples from rats or dogs. After thorough vortexing, the mixture was centrifuged at 13,800×g for 10 min. The supernatants were then subjected to analysis using LC-MS-MS methods. PK parameters were calculated using DAS (Drug And Statistics for Windows) version 2.0, developed by the Shanghai University of Traditional Chinese Medicine, Shanghai, China. The F was determined by comparing the plasma area under the concentration-time curve (AUC) values after oral (p.o.) and intravenous (i.v.) administration of ammoxetine. F was calculated using the formula: F=AUCp.o./AUCi.v.×100% . Statistical analyses were performed using OriginPro 8.6 software. Paired sample or student’s t-test, as well as one-way ANOVA, were employed to compare the means of two or three groups, with a significance level set at p < 0.05.

CYP 2D6 = CYP 2D6 (Homo sapiens, UniProt P10635); experiment: Phenotyping with recombinant human CYP 2D6; assay type: in vitro ADME; set-up: purchased BD (Woburn, USA); conditions: 5 μmol/L, 25 pmol/mL CYP, 1 h
Chain of CYP 2D6 (P10635 whole entry): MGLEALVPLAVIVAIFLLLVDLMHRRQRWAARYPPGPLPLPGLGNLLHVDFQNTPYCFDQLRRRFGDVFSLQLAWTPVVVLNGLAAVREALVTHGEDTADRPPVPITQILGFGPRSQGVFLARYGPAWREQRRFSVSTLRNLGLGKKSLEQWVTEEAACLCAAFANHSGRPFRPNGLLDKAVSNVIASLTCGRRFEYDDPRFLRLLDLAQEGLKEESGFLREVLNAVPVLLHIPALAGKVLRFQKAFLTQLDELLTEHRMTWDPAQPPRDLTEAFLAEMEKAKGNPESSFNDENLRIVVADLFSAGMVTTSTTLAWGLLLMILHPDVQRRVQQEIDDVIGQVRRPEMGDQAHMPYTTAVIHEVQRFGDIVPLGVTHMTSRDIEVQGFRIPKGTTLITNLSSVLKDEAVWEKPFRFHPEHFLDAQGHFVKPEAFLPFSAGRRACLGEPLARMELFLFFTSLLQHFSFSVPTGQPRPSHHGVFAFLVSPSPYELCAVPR
Description: Ammoxetine (final concentration 5 μmol/L) was incubated with recombinant human CYP 3A4, CYP 1A2, CYP 2C9, CYP 2C19, and CYP 2D6 (final concentration 25 pmol/mL) in a 5 mmol/L K2HPO4 buffer at pH 7.4. The incubations were performed in quintuplicate. NADPH (final concentration 1 mmol/L) was added to initiate the incubation process. The mixture was then incubated at 37°C for 1 h. To stop the reaction, 200 μL of ice-cold acetonitrile/methanol (1:1, v/v) containing 500 ng/mL of L-phencynonate (IS) was added. The samples were vortexed for 2 min and centrifuged at 13,800×g and 4°C for 10 min. The supernatants obtained were analyzed using an LC-MS-MS method. To establish appropriate controls, zero-time controls and blank controls in the absence of NADPH were set up in parallel.

CNCC[C@H](Oc1cccc2c1OCO2)c1cccs1 [ammoxetine]
fraction unbound at 1 h, 50 ng/mL ([1]; 50 ng/mL, read-out: Percentage of ammoxetine-protein binding rate (%) (converted)): 0.338
fraction unbound at 1 h, 150 ng/mL ([1]; 150 ng/mL, read-out: Percentage of ammoxetine-protein binding rate (%) (converted)): 0.447
fraction unbound at 1 h, 450 ng/mL ([1]; 450 ng/mL, read-out: Percentage of ammoxetine-protein binding rate (%) (converted)): 0.506
fraction unbound at 1 h ([1]; approximate range over 50-450 ng/mL, read-out: PPB rate): 0.4 to 0.5
AUC(0-inf) (PK study in rats; SD, 8 mg/kg single oral dose): 1370 ng·h/mL
AUC(0-t) (PK study in rats; SD, 8 mg/kg single oral dose): 1370 ng·h/mL
Cmax (PK study in rats; SD, 8 mg/kg single oral dose): 287 ± 50.8 ng/mL
CL/F (PK study in rats; SD, 8 mg/kg single oral dose): 100 mL/min/kg
MRT last (PK study in rats; SD, 8 mg/kg single oral dose): 4.38 ± 0.47 h
MRT inf (PK study in rats; SD, 8 mg/kg single oral dose): 4.49 ± 0.44 h
Tmax (PK study in rats; SD, 8 mg/kg single oral dose, read-out: Tmax): 0.75 ± 0.27 h
Vd/F (PK study in rats; SD, 8 mg/kg single oral dose): 24.4 ± 4.48 L/kg
half-life (PK study in rats; SD, 8 mg/kg single oral dose): 2.87 ± 0.59 h
AUC(0-inf) (PK study in rats; SD, 20 mg/kg single oral dose): 3400 ng·h/mL
AUC(0-t) (PK study in rats; SD, 20 mg/kg single oral dose): 3200 ng·h/mL
Cmax (PK study in rats; SD, 20 mg/kg single oral dose): 400 ± 246 ng/mL
CL/F (PK study in rats; SD, 20 mg/kg single oral dose): 108 mL/min/kg
MRT last (PK study in rats; SD, 20 mg/kg single oral dose): 6.73 ± 1.25 h
MRT inf (PK study in rats; SD, 20 mg/kg single oral dose): 8.57 ± 3.58 h
Tmax (PK study in rats; SD, 20 mg/kg single oral dose, read-out: Tmax): 1.58 ± 1.39 h
Vd/F (PK study in rats; SD, 20 mg/kg single oral dose): 53.5 ± 29 L/kg
half-life (PK study in rats; SD, 20 mg/kg single oral dose): 5.61 ± 2.59 h
AUC(0-inf) (PK study in rats; SD, 50 mg/kg single oral dose): 12900 ng·h/mL
AUC(0-t) (PK study in rats; SD, 50 mg/kg single oral dose): 11000 ng·h/mL
Cmax (PK study in rats; SD, 50 mg/kg single oral dose): 987 ± 362 ng/mL
CL/F (PK study in rats; SD, 50 mg/kg single oral dose): 72.3 mL/min/kg
MRT last (PK study in rats; SD, 50 mg/kg single oral dose): 7.74 ± 0.52 h
MRT inf (PK study in rats; SD, 50 mg/kg single oral dose): 11.8 ± 7.34 h
Tmax (PK study in rats; SD, 50 mg/kg single oral dose, read-out: Tmax): 3.83 ± 2.7 h
Vd/F (PK study in rats; SD, 50 mg/kg single oral dose): 40.3 ± 16.4 L/kg
half-life (PK study in rats; SD, 50 mg/kg single oral dose): 7.51 ± 5.7 h
Tmax (PK study in rats; Sprague-Dawley (SD), oral 8, 20 and 50 mg/kg, read-out: Tmax values, range): 0.75 to 3.83 h
Transformation ratio% (CYP 2D6): 14.09±1.89%
residuary concentration of ammoxetine, Mean±SD (CYP 2D6): 5.89±0.13
